According to patent US12486253B2, “Therapeutics for the degradation of mutant BRAF” (C4 THERAPEUTICS, INC., priority 2021, dated 2025):

Molecular target: BRAF V600E (Homo sapiens, UniProt P15056, V600E)
Assay: HiBiT cellular BRAF^V600E degradation assay
Type: cell-based
Conditions: A375.10 cells, 24 h; for DC50: concentration at which 50% of total cellular BRAF^V600E is degraded; for Emax: residual protein remaining in the cell, read-out: HiBit 24 h Emax

Chain of BRAF V600E (P15056 whole entry V600E): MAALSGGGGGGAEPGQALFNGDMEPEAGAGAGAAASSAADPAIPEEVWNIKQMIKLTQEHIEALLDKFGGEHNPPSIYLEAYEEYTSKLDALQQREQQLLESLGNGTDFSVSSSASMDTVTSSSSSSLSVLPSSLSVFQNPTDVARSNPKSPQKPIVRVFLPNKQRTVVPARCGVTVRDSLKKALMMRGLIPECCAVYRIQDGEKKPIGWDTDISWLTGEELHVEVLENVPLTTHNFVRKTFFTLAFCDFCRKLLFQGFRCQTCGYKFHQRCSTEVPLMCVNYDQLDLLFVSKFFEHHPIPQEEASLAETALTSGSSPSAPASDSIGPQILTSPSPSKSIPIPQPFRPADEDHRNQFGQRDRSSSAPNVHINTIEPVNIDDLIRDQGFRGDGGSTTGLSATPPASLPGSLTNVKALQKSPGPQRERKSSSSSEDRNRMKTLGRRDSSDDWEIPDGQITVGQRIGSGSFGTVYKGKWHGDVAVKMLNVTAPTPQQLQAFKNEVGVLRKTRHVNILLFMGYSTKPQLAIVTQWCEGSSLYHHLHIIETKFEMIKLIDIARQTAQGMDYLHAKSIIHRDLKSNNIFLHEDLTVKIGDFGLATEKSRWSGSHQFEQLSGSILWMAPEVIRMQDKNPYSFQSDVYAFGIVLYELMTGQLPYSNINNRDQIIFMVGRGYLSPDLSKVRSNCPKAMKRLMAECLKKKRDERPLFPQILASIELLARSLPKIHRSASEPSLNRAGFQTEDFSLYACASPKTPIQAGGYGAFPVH

Compound	DC50 [nM]	Emax [%]
CCN(C)S(=O)(=O)Nc1ccc(F)c(Oc2ccc3ncn(C4COC5(CCN(C(=O)CN6CCC(c7ccc8c(N9CCC(=O)NC9=O)nn(C)c8c7)CC6)CC5)C4)c(=O)c3c2)c1C#N (stereo not drawn) [Example 148, 3-[6-[2-cyano-3-[[ethyl(methyl)sulfamoyl]amino]-6-fluorophenoxy]-4-oxoquinazolin-3-yl]-8-[2-[4-[3-(2,4-dioxo-1,3-diazinan-1-yl)-1-methylindazol-6-yl]piperidin-1-yl]acetyl]-1-oxa-8-azaspiro[4.5]decane]	18.4	8.7
CCN(C)S(=O)(=O)Nc1ccc(F)c(Oc2ccc3ncn([C@H]4COC5(CCN(C(=O)CC6CCN(c7ccc8c(C9CCC(=O)NC9=O)nn(C)c8c7)CC6)CC5)C4)c(=O)c3c2)c1C#N (stereo partly drawn) [Example 151, (3R)-3-[6-[2-cyano-3-[[ethyl(methyl)sulfamoyl]amino]-6-fluorophenoxy]-4-oxoquinazolin-3-yl]-8-[2-[1-[3-(2,6-dioxopiperidin-3-yl)-1-methylindazol-6-yl]piperidin-4-yl]acetyl]-1-oxa-8-azaspiro[4.5]decane]	18.7	24.6
CCN(C)S(=O)(=O)Nc1ccc(F)c(Oc2ccc3ncn([C@H]4COC5(CCN(C(=O)CC6(O)CCN(c7ccc8c(C9CCC(=O)NC9=O)nn(C)c8c7)CC6)CC5)C4)c(=O)c3c2)c1C#N (stereo partly drawn) [Example 152, (3R)-3-[6-[2-cyano-3-[[ethyl(methyl)sulfamoyl]amino]-6-fluorophenoxy]-4-oxoquinazolin-3-yl]-8-[2-[1-[3-(2,6-dioxopiperidin-3-yl)-1-methylindazol-6-yl]-4-hydroxypiperidin-4-yl]acetyl]-1-oxa-8-azaspiro[4.5]decane]	27.2	25.2
CCN(C)S(=O)(=O)Nc1ccc(F)c(Oc2ccc3ncn([C@H]4CCC5(CCN(C(=O)CN6CCC(c7ccc8c(N9CCC(=O)NC9=O)nn(C)c8c7)CC6)CC5)C4)c(=O)c3c2)c1C#N [Example 154, 6-[2-cyano-3-[[ethyl(methyl)sulfamoyl]amino]-6-fluorophenoxy]-3-[(3S)-8-[2-[4-[3-(2,4-dioxo-1,3-diazinan-1-yl)-1-methylindazol-6-yl]piperidin-1-yl]acetyl]-8-azaspiro[4.5]decan-3-yl]-4-oxoquinazoline]	24.6	11.1
CCN(C)S(=O)(=O)Nc1ccc(F)c(Oc2ccc3ncn(C4CCC5(CC4)CCN(C(=O)CN4CCC(c6ccc7c(N8CCC(=O)NC8=O)nn(C)c7c6)CC4)CC5)c(=O)c3c2)c1C#N [Example 155, 9-[6-[2-cyano-3-[[ethyl(methyl)sulfamoyl]amino]-6-fluorophenoxy]-4-oxoquinazolin-3-yl]-3-[2-[4-[3-(2,4-dioxo-1,3-diazinan-1-yl)-1-methylindazol-6-yl]piperidin-1-yl]acetyl]-3-azaspiro[5.5]undecane]	23.2	9.75
CCN(C)S(=O)(=O)Nc1ccc(F)c(Oc2ccc3ncn([C@H]4CCC5(CCN(C(=O)CN6CCC(c7ccc8c(C9CCC(=O)NC9=O)nn(C)c8c7)C(F)(F)C6)CC5)C4)c(=O)c3c2)c1C#N (stereo partly drawn) [Example 160, 6-[2-cyano-3-[[ethyl(methyl)sulfamoyl]amino]-6-fluorophenoxy]-3-[(3S)-8-[2-[4-[3-(2,6-dioxopiperidin-3-yl)-1-methylindazol-6-yl]-3,3-difluoropiperidin-1-yl]acetyl]-8-azaspiro[4.5]decan-3-yl]-4-oxoquinazoline]	22.2	23.9
CCN(C)S(=O)(=O)Nc1ccc(F)c(Oc2ccc3ncn([C@H]4CCC5(CCN(C(=O)CN6CCN(c7cc8c(cc7F)c(N7CCC(=O)NC7=O)nn8C)CC6)CC5)C4)c(=O)c3c2)c1C#N [Example 162, 6-[2-cyano-3-[[ethyl(methyl)sulfamoyl]amino]-6-fluorophenoxy]-3-[(3S)-8-[2-[4-[3-(2,4-dioxo-1,3-diazinan-1-yl)-5-fluoro-1-methylindazol-6-yl]piperazin-1-yl]acetyl]-8-azaspiro [4.5]decan-3-yl]-4-oxoquinazoline]	17.3	14.5
CCN(C)S(=O)(=O)Nc1ccc(F)c(Oc2ccc3ncn(C4CCC5(CC4)CCN(C(=O)CN4CCN(c6cc7c(cc6F)c(N6CCC(=O)NC6=O)nn7C)CC4)CC5)c(=O)c3c2)c1C#N [Example 163, 9-[6-[2-cyano-3-[[ethyl(methyl)sulfamoyl]amino]-6-fluorophenoxy]-4-oxoquinazolin-3-yl]-3-[2-[4-[3-(2,4-dioxo-1,3-diazinan-1-yl)-5-fluoro-1-methylindazol-6-yl]piperazin-1-yl]acetyl]-3-azaspiro[5.5]undecane]	27.6	16.2
CCN(C)S(=O)(=O)Nc1ccc(F)c(Oc2ccc3ncn([C@H]4CCC5(CCN(C(=O)CN6CCC(c7ccc8c(C9CCC(=O)NC9=O)nn(C)c8c7)CC6)CC5)C4)c(=O)c3c2)c1Cl (stereo partly drawn) [Example 166, 6-[2-chloro-3-[[ethyl(methyl)sulfamoyl]amino]-6-fluorophenoxy]-3-[(3S)-8-[2-[4-[3-(2,6-dioxopiperidin-3-yl)-1-methylindazol-6-yl]piperidin-1-yl]acetyl]-8-azaspiro[4.5]decan-3-yl]-4-oxoquinazoline]	34.5	23.5
Cn1nc(C2CCC(=O)NC2=O)c2ccc(C3CCN(CC(=O)N4CCC5(CC4)C[C@@H](n4cnc6ccc(Oc7c(F)ccc(NS(=O)(=O)C8CCCC8)c7C#N)cc6c4=O)CO5)CC3)cc21 (stereo partly drawn) [Example 167, N-[2-cyano-3-[3-[(3R)-8-[2-[4-[3-(2,6-dioxopiperidin-3-yl)-1-methylindazol-6-yl]piperidin-1-yl]acetyl]-1-oxa-8-azaspiro[4.5]decan-3-yl]-4-oxoquinazolin-6-yl]oxy-4-fluorophenyl]cyclopentanesulfonamide]	42.6	16.5
CC(C)S(=O)(=O)Nc1ccc(F)c(Oc2ccc3ncn([C@H]4COC5(CCN(C(=O)CN6CCC(c7ccc8c(C9CCC(=O)NC9=O)nn(C)c8c7)CC6)CC5)C4)c(=O)c3c2)c1C#N (stereo partly drawn) [Example 168, N-[2-cyano-3-[3-[(3R)-8-[2-[4-[3-(2,6-dioxopiperidin-3-yl)-1-methylindazol-6-yl]piperidin-1-yl]acetyl]-1-oxa-8-azaspiro[4.5]decan-3-yl]-4-oxoquinazolin-6-yl]oxy-4-fluorophenyl]propane-2-sulfonamide]	36.5	14.1
CCN(C)S(=O)(=O)Nc1ccc(F)c(Oc2ccc3ncn([C@H]4COC5(CCN(C(=O)CN6CC(c7ccc8c(C9CCC(=O)NC9=O)nn(C)c8c7)C6)CC5)C4)c(=O)c3c2)c1C#N (stereo partly drawn) [Example 171, (3R)-3-[6-[2-cyano-3-[[ethyl(methyl)sulfamoyl]amino]-6-fluorophenoxy]-4-oxoquinazolin-3-yl]-8-[2-[3-[3-(2,6-dioxopiperidin-3-yl)-1-methylindazol-6-yl]azetidin-1-yl]acetyl]-1-oxa-8-azaspiro[4.5]decane]	30.7	7.11

The remaining lines, values ahead:

DC50 [nM]	Emax [%]	Compound
10.7	11.5	CCN(C)S(=O)(=O)Nc1ccc(F)c(Oc2ccc3ncn(C4CC5(CCN(C(=O)CN6CCC(c7ccc8c(C9CCC(=O)NC9=O)nn(C)c8c7)CC6)CC5)C4)c(=O)c3c2)c1C#N (stereo not drawn) [Example 149, 6-[2-cyano-3-[[ethyl(methyl)sulfamoyl]amino]-6-fluorophenoxy]-3-[7-[2-[4-[3-(2,6-dioxopiperidin-3-yl)-1-methylindazol-6-yl]piperidin-1-yl]acetyl]-7-azaspiro[3.5]nonan-2-yl]-4-oxoquinazoline]
26.6	21	CCN(C)S(=O)(=O)Nc1ccc(F)c(Oc2ccc3ncn(C4CCC5(CC4)CCN(C(=O)CN4CCC(c6ccc7c(C8CCC(=O)NC8=O)nn(C)c7c6)CC4)CC5)c(=O)c3c2)c1C#N (stereo not drawn) [Example 156, 9-[6-[2-cyano-3-[[ethyl(methyl)sulfamoyl]amino]-6-fluorophenoxy]-4-oxoquinazolin-3-yl]-3-[2-[4-[3-(2,6-dioxopiperidin-3-yl)-1-methylindazol-6-yl]piperidin-1-yl]acetyl]-3-azaspiro[5.5]undecane]
25	30	CCN(C)S(=O)(=O)Nc1ccc(F)c(Oc2ccc3ncn(C4CCC5(CC4)CCN(C(=O)CC4(O)CCN(c6cc7c(cc6F)c(N6CCC(=O)NC6=O)nn7C)CC4)CC5)c(=O)c3c2)c1C#N [Example 158, 9-[6-[2-cyano-3-[[ethyl(methyl)sulfamoyl]amino]-6-fluorophenoxy]-4-oxoquinazolin-3-yl]-3-[2-[1-[3-(2,4-dioxo-1,3-diazinan-1-yl)-5-fluoro-1-methylindazol-6-yl]-4-hydroxypiperidin-4-yl]acetyl]-3-azaspiro[5.5]undecane]
6.98	18.8	CCN(C)S(=O)(=O)Nc1ccc(F)c(Oc2ccc3ncn([C@H]4CCC5(CCN(C(=O)CC6(O)CCN(c7cc8c(cc7F)c(N7CCC(=O)NC7=O)nn8C)CC6)CC5)C4)c(=O)c3c2)c1C#N [Example 159, 6-[2-cyano-3-[[ethyl(methyl)sulfamoyl]amino]-6-fluorophenoxy]-3-[(3S)-8-[2-[1-[3-(2,4-dioxo-1,3-diazinan-1-yl)-5-fluoro-1-methylindazol-6-yl]-4-hydroxypiperidin-4-yl]acetyl]-8-azaspiro [4.5]decan-3-yl]-4-oxoquinazoline]
26.6	15.6	CCN(C)S(=O)(=O)Nc1ccc(F)c(Oc2ccc3ncn([C@H]4COC5(CCN(C(=O)CN6CCN(c7cc8c(cc7F)c(N7CCC(=O)NC7=O)nn8C)CC6)CC5)C4)c(=O)c3c2)c1C#N [Example 164, (3R)-3-[6-[2-cyano-3-[[ethyl(methyl)sulfamoyl]amino]-6-fluorophenoxy]-4-oxoquinazolin-3-yl]-8-[2-[4-[3-(2,4-dioxo-1,3-diazinan-1-yl)-5-fluoro-1-methylindazol-6-yl]piperazin-1-yl]acetyl]-1-oxa-8-azaspiro[4.5]decane]
100	17.8	Cn1nc(C2CCC(=O)NC2=O)c2ccc(C3CCN(CC(=O)N4CCC5(CC4)C[C@@H](n4cnc6ccc(Oc7c(F)ccc(NS(=O)(=O)N8CC[C@@H](F)C8)c7C#N)cc6c4=O)CO5)CC3)cc21 (stereo partly drawn) [Example 165, (3R)—N-[2-cyano-3-[3-[(3R)-8-[2-[4-[3-(2,6-dioxopiperidin-3-yl)-1-methylindazol-6-yl]piperidin-1-yl]acetyl]-1-oxa-8-azaspiro[4.5]decan-3-yl]-4-oxoquinazolin-6-yl]oxy-4-fluorophenyl]-3-fluoropyrrolidine-1-sulfonamide]
